This assay concerns platelet aggregation. Nature of the assay: inhibition of arachidonic acid-induced platelet aggregation in beagle platelet rich plasma (PRP), light transmission. It counts as cell-based. Particulars: Canis lupus familiaris, arachidonic acid inducer, 37°. The procedure: That the prostacyclins of formulas I-A and I-B of this invention are active as anti-blood platelet aggregating agents can be seen from the administration of (5Z,7β,9α,11α,13E,15R)-7-fluoro-6,9-epoxy-11,15-dihydroxy-16,16-dimethyl-prosta-5,13-dien-1-oic acid methyl ester by the following test.
30 Ml. of blood was drawn from the jugular vein of a conscious beagle using two 15 ml. Vacutainer tubes, with no additive, connected to a 20 g. 1 inch multiple sample needle. The blood was immediately transferred to a 50 ml. conical plastic centrifuge tube containing 3 ml. of 3.8% sodium citrate (3.8 grams of sodium citrate crystal, Na3 C6 H5 O7.2H2 O, in 100 ml. of distilled water), capped and gently mixed. The citrated blood was centrifuged at 160 g. for 15 minutes at 20° C. The platelet rich plasma (PRP) was carefully withdrawn with a pipette, without disturbing the buffy coat and erythrocyte layers. The PRP was placed in 16×125 mm plastic tubes, capped and stored at room temperature 19°-21° C. PRP preparations showing a tinge of redness, indicative of hemolysis, were discarded. The remaining blood, after the removal of PRP, was recentrifuged at higher speed, 900 g. for 10 minutes, to yield platelet poor plasma (PPP). The PRP was used immediately and the aggregation study completed within three hours after preparation.
Platelet aggregation was measured with a Payton duel channel aggregation module connected to a duel pen recorder for the continuous recording of the increase in light transmission due to clumping of platelets. The 0-100% transmission scale was set with PRP (0%) and PPP (100%). The temperature was set at 37° and the stirring speed at 900 rpm. 0.45 Ml. of PRP was added to a cuvette containing a teflon coating stirring bar and prewarmed at 37° in a water bath. 5 μl of various concentrations of (5Z,7β,9α,11α,13E,15R)-7-fluoro-6,9-epoxy-11,15-dihydroxy-16,16-dimethyl-prosta-5,13-dien-1-oic acid methyl ester, diluted from a stock solution of 5×10^-4 M in DMSO (dimethylsulfoxide) with phosphate buffered saline containing 1 mg/ml. of bovine serum albumin, fraction V, was added and stirred for 1 minute. The inducer of aggregation, arachidonic acid, at a concentration which will cause 50-70% aggregation after 5 minutes, was then added in 50 μl of solution. The % inhibition, set forth in the following Table, was calculated from the ratio of the % aggregation with (5Z,7β,9α,11α,13E,15R)-7-fluoro-6,9-epoxy-11,15-dihydroxy-16,16-dimethyl-prosta-5,13-dien-1-oic acid methyl ester over that with the vehicle×100.
The preparation of phosphate buffered saline and arachidonic acid solution used above is as follows: Phosphate buffered saline (PBS) was prepared by adding 1 mM solution of sodium phosphate aqueous buffer, pH 7.4 to 0.85% by weight/volume of an aqueous sodium chloride solution. Arachidonic acid solution was prepared as follows: A stock solution of 10 mg. per ml. in absolute ETOH was prepared and stored in freezer. To make a 10 mM solution, 0.3 ml. of the stock solution was evaporated to near dryness under nitrogen and redissolved in 0.75 ml. of 0.02NH4 OH (freshly prepared) and 0.2 ml. of PBS. Further dilutions of arachidonic acid were made with NH4 OH and PBS mixture.

As for `CCCCC(C)(C)[C@H](O)/C=C/[C@@H]1[C@@H]2[C@H](C[C@H]1O)O/C(=C\CCCC(=O)OC)[C@H]2F` [(5Z,7β,9α,11α,13E,15R)-7-fluoro-6,9-epoxy-11,15-dihydroxy-16,16-dimethyl-prosta-5,13-dien-1-oic acid methyl ester], under “concentration 1 × 10^-10 M”, the inhibition at 0.0001 µM came to 20.8%. This molecule also showed an inhibition at 10 pM (concentration 1 × 10^-11 M) of 57.8%. The same molecule yielded an inhibition at 1 pM (concentration 1 × 10^-12 M) of 71.4%. Further, the inhibition at 100 fM (concentration 1 × 10^-13 M) amounted to 14.2%. The inhibition at 300 fM (concentration 3 × 10^-13 M) stood at 20.8%.

Usually inhibition stands for the share of the control response that was lost under treatment.

The record behind these values is US4558142A, “7-Fluoro-prostacyclin analogs” (Hoffmann-La Roche Inc., priority 1982, dated 1985).
